For 25 molecules, IC50 results are on record in patent US20230365589A1, “NOVEL AMINE DERIVATIVES” (Sumitomo Pharma Co., Ltd., priority 2020, published 2023).

Molecules are shown by their SMILES. Like-named read-outs stand apart in the source and are kept apart here.

Common to all, as to type: biochemical
One assay addresses T1, DYRK1A (Homo sapiens, UniProt Q13627).
T1 construct: purchased Carna Biosciences, Inc. 04-130
Nature of the assay: Inhibition test on activity of DYRK family, mobility shift assay (MSA): DYRK1A. In short, it runs like this:
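Mobility shift assay with recombinant DYRK1A (0.2 ng/μL enzyme solution), FITC-DYRKtide substrate (4 μM in substrate mix), 100 μM ATP in substrate mix, HEPES pH 7.5 buffer with MgCl2; 1 h at room temperature. Phosphorylated vs unphosphorylated peptide peaks quantified; IC50 from regression of inhibition rate against log concentration.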

A further assay deals with T2, DYRK3 (Homo sapiens, UniProt O43781).
T2 construct: purchased Carna Biosciences, Inc. 04-133
T2 sequence (O43781 1-568 isoform O43781-2): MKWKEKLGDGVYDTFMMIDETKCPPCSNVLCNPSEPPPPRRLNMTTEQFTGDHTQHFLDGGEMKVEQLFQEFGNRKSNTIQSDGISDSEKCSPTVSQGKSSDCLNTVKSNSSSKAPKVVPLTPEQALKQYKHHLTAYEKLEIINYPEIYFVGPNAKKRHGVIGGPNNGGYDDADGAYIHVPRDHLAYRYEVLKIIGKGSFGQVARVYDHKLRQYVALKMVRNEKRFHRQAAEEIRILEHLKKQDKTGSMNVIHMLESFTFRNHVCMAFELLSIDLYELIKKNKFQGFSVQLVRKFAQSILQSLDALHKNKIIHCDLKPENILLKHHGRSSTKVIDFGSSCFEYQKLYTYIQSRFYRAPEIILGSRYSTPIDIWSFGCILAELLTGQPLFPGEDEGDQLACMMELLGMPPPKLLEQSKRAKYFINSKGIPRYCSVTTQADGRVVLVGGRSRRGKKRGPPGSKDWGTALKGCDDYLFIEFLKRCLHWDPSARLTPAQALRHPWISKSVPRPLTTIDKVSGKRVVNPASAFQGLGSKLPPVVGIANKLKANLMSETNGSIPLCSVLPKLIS
Nature of the assay: Inhibition test on activity of DYRK family, mobility shift assay (MSA): DYRK3. In short, it runs like this: (§1)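 Mobility-shift readout of FITC-DYRKtide phosphorylation in 20 mM HEPES pH 7.5. The substrate mix held 4 µM peptide, 20 mM MgCl2 and ATP at 100 (1A), 200 (1B), 40 (2) or 20 µM (3). Reaction 1 h at room temperature; IC50 from regression of P/(P+S)-based inhibition vs log concentration.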

The target in the next assay is T3, DYRK2 (Homo sapiens, UniProt Q92630).
T3 construct: purchased Carna Biosciences, Inc. 04-132
T3 sequence (Q92630 74-601 limits assumed): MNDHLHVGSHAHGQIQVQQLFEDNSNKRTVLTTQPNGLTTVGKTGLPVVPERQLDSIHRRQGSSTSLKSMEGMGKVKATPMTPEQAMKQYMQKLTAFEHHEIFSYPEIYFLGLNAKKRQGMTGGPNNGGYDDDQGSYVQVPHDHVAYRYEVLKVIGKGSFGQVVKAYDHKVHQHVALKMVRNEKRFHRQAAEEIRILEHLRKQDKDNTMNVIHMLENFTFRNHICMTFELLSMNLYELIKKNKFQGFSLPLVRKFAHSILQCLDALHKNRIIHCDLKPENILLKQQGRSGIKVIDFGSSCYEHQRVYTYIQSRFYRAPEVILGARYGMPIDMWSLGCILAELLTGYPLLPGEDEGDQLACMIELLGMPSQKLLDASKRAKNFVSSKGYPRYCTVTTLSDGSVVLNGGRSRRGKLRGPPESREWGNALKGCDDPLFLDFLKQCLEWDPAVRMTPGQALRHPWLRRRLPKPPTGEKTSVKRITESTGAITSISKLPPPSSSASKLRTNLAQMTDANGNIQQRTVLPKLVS
Kind of assay: Inhibition test on activity of DYRK family, mobility shift assay (MSA): DYRK2. In short, it runs like this:
as §1

Setting [1] is: read-out: Inhibitory activity DYRK 1A.
Where [2] appears, read: read-out: Inhibitory activity DYRK 3.
Setting [3] is: read-out: Inhibitory activity DYRK 2.
[4] abbreviates: MSA, FITC-labeled DYRKtide peptide, ATP 100 μM, read-out: Inhibitory activity DYRK 1A (IC50 class).
[5] abbreviates: MSA, FITC-labeled DYRKtide peptide, ATP 20 μM, read-out: Inhibitory activity DYRK 3 (IC50 class).
Setting [6] is: MSA, FITC-labeled DYRKtide peptide, ATP 40 μM, read-out: Inhibitory activity DYRK 2 (IC50 class).

For the molecule `N#CCN1CCC[C@@H]2NC(=O)N(c3nc4c5c(ccc4s3)OCC5)[C@@H]2C1` (racemic) [Example 106, rac-[(3aR,8aS)-3-(7,8-dihydrofuro[3,2-e][1,3]benzothiazol-2-yl)-2-oxooctahydroimidazo[4,5-c]azepin-5(1H)-yl]acetonitrile], the IC50 was 0.01 to 0.1 µM on DYRK1A (setting [1]), 0.1 to 1 µM on DYRK3 (setting [2]) and at least 1 µM on DYRK2 (setting [3]).
In the case of `O=C1N[C@H]2CCN(C3CC3)C[C@H]2N1c1nc2c3c(ccc2s1)OCC3` (racemic) [Example 98, rac-(3aR,7aS)-5-cyclopropyl-3-(7,8-dihydrofuro[3,2-e][1,3]benzothiazol-2-yl)octahydro-2H-imidazo[4,5-c]pyridin-2-one], the IC50 was under 0.01 µM at DYRK1A (setting [1]), at least 1 µM at DYRK3 (setting [2]) and at least 1 µM at DYRK2 (setting [3]).
With `O=C1N[C@@H]2COC[C@@H]2N1c1nc2c3c(ccc2s1)OCC3` [Example 66], the IC50 is 0.1 to 1 µM on DYRK1A (setting [4]), at least 1 µM at DYRK3 (setting [5]) and at least 1 µM on DYRK2 (setting [6]).
As for `O=C1N[C@@H]2CO[C@H](CO)[C@@H]2N1c1nc2c3c(ccc2s1)OCC3` [Example 154], the IC50 on DYRK1A (setting [4]), at DYRK3 (setting [5]) and at DYRK2 (setting [6]) was at least 1 µM in each case.
Consider `O=C1N[C@H]2COC(F)C[C@H]2N1c1nc2c3c(ccc2s1)OCC3` (stereo partly drawn) [Example 151, (3aR,7aR)-1-(7,8-Dihydrofuro[3,2-e][1,3]benzothiazol-2-yl)-6-fluorohexahydropyrano[3,4-d]imidazol-2(3H)-one], for which the values for the IC50 on DYRK1A (setting [4]), on DYRK3 (setting [5]) and at DYRK2 (setting [6]) were under 0.01 µM, 0.01 to 0.1 µM and 0.1 to 1 µM, respectively.
Turning to `C[C@@H]1NC(=O)N(c2nc3c4c(ccc3s2)OCC4)[C@@H]1CN1CC[C@H](F)C1` [Example 115, (4S,5R)-1-(7,8-dihydrofuro[3,2-e][1,3]benzothiazol-2-yl)-5-{[(3S)-3-fluoropyrrolidin-1-yl]methyl}-4-methylimidazolidin-2-one], the IC50 is 0.01 to 0.1 µM on DYRK1A (setting [1]), at least 1 µM on DYRK3 (setting [2]) and 0.1 to 1 µM on DYRK2 (setting [3]).
`CN1C[C@@H](F)[C@@H]2NC(=O)N(c3nc4c5c(ccc4s3)OCC5)[C@@H]2C1` [Example 75]: the IC50 at DYRK1A (setting [4]) was 0.01 to 0.1 µM; on DYRK3 (setting [5]), at least 1 µM; at DYRK2 (setting [6]) it was at least 1 µM.
Turning to `O=C1N[C@H]2CCNC3(CC3)[C@H]2N1c1nc2c3c(ccc2s1)OCC3` [Example 47], the figures for the IC50 on DYRK1A (setting [4]), on DYRK3 (setting [5]) and at DYRK2 (setting [6]) were 0.1 to 1 µM, 0.1 to 1 µM and at least 1 µM, respectively.
As to `O=C1N[C@H]2CNCCC[C@H]2N1c1nc2c3c(ccc2s1)OCC3` [Example 5], the results for the IC50 at DYRK1A (setting [4]), on DYRK3 (setting [5]) and on DYRK2 (setting [6]) were 0.01 to 0.1 µM, 0.1 to 1 µM and 0.1 to 1 µM, respectively.
As to `C[C@@H]1C[C@@H]2NC(=O)N(c3nc4c5c(ccc4s3)OCC5)[C@@H]2CN1C` [Example 96], the IC50 on DYRK1A (setting [1]) was 0.1 to 1 µM; at DYRK3 (setting [2]), at least 1 µM; on DYRK2 (setting [3]), at least 1 µM.
As to `O=C1N[C@H]2COC[C@H]2N1c1nc2c3c(ccc2s1)OCC3` [Example 65, (3aR,6aS)-1-(7,8-dihydrofuro[3,2-e][1,3]benzothiazol-2-yl)tetrahydro-1H-furo[3,4-d]imidazol-2(3H)-one], the IC50 was under 0.01 µM on DYRK1A (setting [4]), 0.01 to 0.1 µM on DYRK3 (setting [5]) and 0.01 to 0.1 µM at DYRK2 (setting [6]).
As to `O=C1N[C@H]2CCOC[C@H]2N1c1nc2c3c(ccc2s1)OCC3` (racemic) [Example 120, rac-(3aR,7aR)-3-(7,8-dihydrofuro[3,2-e][1,3]benzothiazol-2-yl)hexahydropyrano[3,4-d]imidazol-2(3H)-one], the IC50 was 0.01 to 0.1 µM on DYRK1A (setting [1]), 0.1 to 1 µM at DYRK3 (setting [2]) and 0.1 to 1 µM on DYRK2 (setting [3]).
On to `O=C1N[C@H]2CCN(C3CCC3)C[C@H]2N1c1nc2c3c(ccc2s1)OCC3` (racemic) [Example 72, rac-(3aR,7aS)-5-cyclobutyl-3-(7,8-dihydrofuro[3,2-e][1,3]benzothiazol-2-yl)octahydro-2H-imidazo[4,5-c]pyridin-2-one], for which the values for the IC50 on DYRK1A (setting [4]), on DYRK3 (setting [5]) and on DYRK2 (setting [6]) were 0.01 to 0.1 µM, at least 1 µM and at least 1 µM, respectively.
Regarding `O=C1N[C@H]2CCCN(C3COC3)C[C@H]2N1c1nc2c3c(ccc2s1)OCO3` (racemic) [Example 86, rac-(3aR,8aS)-3-(2H-[1,3]dioxolo[4,5-e][1,3]benzothiazol-7-yl)-5-(oxetan-3-yl)octahydroimidazo[4,5-c]azepin-2(1H)-one], the IC50 was 0.01 to 0.1 µM at DYRK1A (setting [4]), at least 1 µM at DYRK3 (setting [5]) and at least 1 µM on DYRK2 (setting [6]).
As for `C[C@H]1[C@H]2[C@@H](CCN1C)NC(=O)N2c1nc2c3c(ccc2s1)OCC3` [Example 95], the IC50 at DYRK1A (setting [1]), on DYRK3 (setting [2]) and at DYRK2 (setting [3]) was 0.1 to 1 µM each time.
Regarding `CN1CCC[C@@H]2NC(=O)N(c3nc4c5c(ccc4s3)OCO5)[C@@H]2C1` (racemic) [Example 85, rac-(3aR,8aS)-3-(2H-[1,3]dioxolo[4,5-e][1,3]benzothiazol-7-yl)-5-methyloctahydroimidazo[4,5-c]azepin-2(1H)-one], the IC50 was 0.01 to 0.1 µM on DYRK1A (setting [4]), at least 1 µM at DYRK3 (setting [5]) and at least 1 µM on DYRK2 (setting [6]).
Turning to `CN1CC[C@@H]2[C@@H](NC(=O)N2c2nc3c4c(ccc3s2)OCC4)C12CC2` [Example 68], the values for the IC50 at DYRK1A (setting [4]), on DYRK3 (setting [5]) and on DYRK2 (setting [6]) were 0.1 to 1 µM, 0.1 to 1 µM and at least 1 µM, respectively.
With `O=C1N[C@@H]2COCC[C@H]2N1c1nc2c3c(ccc2s1)OCC3` [Example 126], the IC50 at DYRK1A (setting [1]), at DYRK3 (setting [2]) and on DYRK2 (setting [3]) was 0.1 to 1 µM each time.
Turning to `C[C@H]1[C@H]2NC(=O)N(c3nc4c5c(ccc4s3)OCC5)C2CCN1C` (stereo partly drawn) [Example 91], the IC50 on DYRK1A (setting [4]) lay in the range of 0.01 to 0.1 µM; on DYRK3 (setting [5]) it was 0.01 to 0.1 µM; at DYRK2 (setting [6]) it was 0.1 to 1 µM.
For `O=C1NC2CCN(CCO)CC2N1c1nc2c3c(ccc2s1)OCC3` (stereo not drawn) [Example 13], the IC50 at DYRK1A (setting [4]) is 0.01 to 0.1 µM; at DYRK3 (setting [5]) it was at least 1 µM; at DYRK2 (setting [6]), at least 1 µM.
`C[C@@H]1NC(=O)N(c2nc3c4c(ccc3s2)OCC4)[C@@H]1CN1CC(F)C1` [Example 118, (4S,5R)-1-(7,8-dihydrofuro[3,2-e][1,3]benzothiazol-2-yl)-5-[(3-fluoroazetidin-1-yl)methyl]-4-methylimidazolidin-2-one]: the IC50 is 0.01 to 0.1 µM on DYRK1A (setting [1]), at least 1 µM at DYRK3 (setting [2]) and at least 1 µM at DYRK2 (setting [3]).
Consider `O=C1N[C@@H]2CCN(C3CC3)C[C@@H]2N1c1nc2c3c(ccc2s1)OCCO3` (relative stereo) [Example 31, cis-5-Cyclopropyl-3-(7,8-dihydro[1,4]dioxino[2,3-e][1,3]benzothiazol-2-yl)octahydro-2H-imidazo[4,5-c]pyridin-2-one], for which the IC50 at DYRK1A (setting [4]) is under 0.01 µM; at DYRK3 (setting [5]), at least 1 µM; at DYRK2 (setting [6]), at least 1 µM.
For `O=C1N[C@H]2CNCCC[C@H]2N1c1nc2c3c(ccc2s1)OCO3` [Example 54], the IC50 at DYRK1A (setting [4]) was 0.01 to 0.1 µM; at DYRK3 (setting [5]), 0.1 to 1 µM; on DYRK2 (setting [6]) it was 0.1 to 1 µM.
As to `O=C1N[C@H]2CCN(C3CNC3)C[C@H]2N1c1nc2c3c(ccc2s1)OCC3` [Example 53], the IC50 on DYRK1A (setting [4]) is 0.1 to 1 µM; on DYRK3 (setting [5]), 0.1 to 1 µM; at DYRK2 (setting [6]) it was at least 1 µM.
On to `O=C1NC2CNCCC2N1c1nc2c3c(ccc2s1)OCC3` (stereo not drawn) [Example 2], for which the IC50 was in the range of 0.01 to 0.1 µM at DYRK1A (setting [4]), 0.01 to 0.1 µM at DYRK3 (setting [5]) and 0.1 to 1 µM on DYRK2 (setting [6]).
